“And” between values parts separate entries of the source, which are not always exact repeats. Equal values may be shown once.
Key:
[1] = system: C. autoethanogenum; test: Balch tube batch growth of homoacetogen C. autoethanogenum on fructose, optical density; assay type: cell-based; details: added 21 h after inoculation
Protocol: These compounds were first tested to determine their effect on a known homoacetogen. Each compound was tested in a series of batch experiments to determine the growth response of a homoacetogen to the presence of the compound at varying concentrations. The batch experiments were all conducted by anoxically filling a Balch tube with 5 ml of a fermentation medium having the composition given in Tables 2 and 3. To expedite results, these batch experiments used fructose as the growth nutrient source for bacteria. Thus, the media included a 5 g/L of fructose.
Each tube was inoculated with 0.5 ml of the same strain of C. autoethanogenum bacteria seed culture inoculum. The tubes were maintained at a temperature of 37° C. Twenty one hours after the inoculation of the tube with the bacteria, the different crotonate derivatives from Table 1 were added to different tubes in the amounts indicated in Table 4 This was at a time of early to mid-log phase growth for the bacteria. Each fermentation of the bacteria in the media at the different concentration of crotonate derivatives were allowed to progress and were monitored to determine the bacteria growth at selected intervals of time varying from approximately 20 hours to 190 hours. Growth at the intervals was measured by reading the optical density (OD) of the fermentation liquid. Optical density was measured using a Spectronic Spec 20 (Thermo Spectronic) at a wavelength of 600 nm. The OD of the Balch tube culture was measured directly in the tube using absorbance mode on the Spec 20 machine. The machine was set to zero absorbance by first measuring and adjusting the setting to zero absorbance using media only as a blank. This process was repeated at each indicated time point throughout the experiment. The ability of a tube fermentation at a particular concentration of crotonate derivative to reach a predetermined optical density was recorded in Table 4. Table 4 indicates the presence of bacterial growth to an OD of approximately 2 or above with a “+”, and to an optical density in a range of 0.5 to 1.5 as a “+/−”, and indicates the failure of bacterial growth to reach an optical density of approximately 0.5 as a “−”.

[2] = system: C. autoethanogenum; test: Toxicity to C. autoethanogenum by batch fermentation using syngas substrate, optical density; assay type: cell-based, Clostridium autoethanogenum; details: for O.D. Response of Various Inhibitors on C. autoethanogenum: Table 21, one value per compound; for O.D. Response to Various Inhibitors: duplicates A and B, amount not given
Protocol: In this example various crotonate-like compounds on are evaluated for toxicity to C. autoethanogenum by batch fermentation using syngas substrate. The batch fermentations are conducted by anoxically filling 100 mL serum bottles with 10 mL of media having the composition given in Tables 12 and 13. Duplicate runs are conducted for each concentration. The compounds are: • C-1 Ethyl 4,4,4-trifluoro-3-(trifluoromethyl)crotonate • C-4 4,4,4-Trifluorocrotonamide • C-9 Ethyl 4,4,4-Trifluoro-3-(amino)crotonate • C-18 3 trifluoromethyl-4-methoxybenzoate.
Each bottle is inoculated with 1.0 mL of seed culture inoculum from an active fermenter using syngas substrate and containing Clostridium autoethanogenum, which inoculum has an OD of about 4.92 (which upon a 10 times dilution provides a starting OD for the fermentation of about 0.49). The bottles are gased with syngas to about 100 kilopascals and maintained at a temperature of 37° C. The bottles are regassed with syngas every 8 to 12 hours. The syngas has the approximate composition set forth in Examples 6 to 10. Twenty four hours after inoculation of the bottles with the bacteria, the compounds are added to different bottles as a solution in 50 μL of N-methylpyrrolidone in the amounts indicated in Tables 20 and 21. The fermentation process is allowed to progress at 37° C. At selected intervals of time, bacterial growth is measured by reading the OD of the fermentation liquid using a Thermo Spectronic Genesys 20 spectrophotometer. Optical density is measured by anoxically removing an aliquot of fermentation liquid and adding it to a disposable cuvette. OD's ranging between 0.01 and 0.4 are measured using fermentation liquid directly, while OD's greater than 0.4 are measure after performing a 1/10 dilution with water.

[3] = system: Clostridium tyrobutyricum; test: Balch tube batch growth of strict butyrogen Clostridium tyrobutyricum on fructose, optical density; assay type: cell-based; details: added 21 h after inoculation
Protocol: Similar experiments were conducted to make a preliminary determination as to which of the crotonate and crotonate-like compounds would act as butyrogen retardants. For this purpose the selected compounds were tested again in a series of batch experiments to determine the growth response of butyrogens to the presence of the compound at varying concentrations. The batch experiments were all conducted by anoxically filling a 20 ml Balch tube with 5 ml of a fermentation medium having the composition given in Tables 2 and 3. The media included 0.5 v/v final concentration of a fructose substrate. For each of the crotonate concentrations tested, duplicate test tubes were prepared.
Each tube was inoculated with 0.5 ml seed culture inoculum of the strict butyrogen Clostridium tyrobutyricum. The tubes were maintained at a temperature of 37° C. Twenty one hours after the inoculation of the tube with the bacteria, the different compounds from Table 1 were added to different tubes in the amounts indicated in Table 6. This was at a time of early to mid-log phase growth for the bacteria. Each fermentation of the bacteria in the media at the different concentration of crotonate derivatives were allowed to progress and were monitored to determine the bacteria growth at selected intervals of time varying from approximately 20 hours to 54 hours. Growth at the intervals was measured by reading the optical density (OD) of the fermentation liquid. Optical density was measured as described in Example 1. The ability of a tube fermentation at a particular concentration of crotonate derivative to reach a predetermined optical density was recorded in Table 6. Table 6 indicates the presence of bacterial growth to an OD of approximately 1.8 or above with a “+”, and to an optical density in a range of 0.7 to 1.5 as a “+/−”, and indicates the failure of bacterial growth to reach an optical density of approximately 0.7 as a “−”.

[4] = 0 Hours, added 24 h after inoculation
[5] = 2.5 Hours, added 24 h after inoculation
[6] = 6.5 Hours, added 24 h after inoculation
[7] = 24.5 Hours, added 24 h after inoculation

CCOC(=O)/C=C(\N)C(F)(F)F [B, ethyl-3-amino-4,4,4-trifluorocrotonate]
Optical density valuation of C. autoethanogenum ([1]; 1 ppm(m)): + (bacterial growth to an OD of approximately 2 or above) | Optical density valuation of C. autoethanogenum ([1]; 5 ppm(m)): + (bacterial growth to an OD of approximately 2 or above) | Optical density valuation of C. autoethanogenum ([1]; 10 ppm(m)): + (bacterial growth to an OD of approximately 2 or above) | Optical density valuation of C. autoethanogenum ([1]; 50 ppm(m)): + (bacterial growth to an OD of approximately 2 or above) | Optical density valuation of C. autoethanogenum ([1]; 100 ppm(m)): + (bacterial growth to an OD of approximately 2 or above) | Optical density valuation of C. autoethanogenum ([1]; 500 ppm(m)): + (bacterial growth to an OD of approximately 2 or above) | Optical density valuation of C. autoethanogenum ([1]; 1000 ppm(m)): + (bacterial growth to an OD of approximately 2 or above) | Optical density valuation of C. autoethanogenum ([1]; 5000 ppm(m)): +/− (to an optical density in a range of 0.5 to 1.5) | Optical density valuation of C. autoethanogenum ([1]; 10000 ppm(m)): − (failure of bacterial growth to reach an optical density of approximately 0.5) | O.D. Response of Various Inhibitors on C. autoethanogenum [2, 4]: 0.49 | O.D. Response of Various Inhibitors on C. autoethanogenum [2, 5]: 0.41 | O.D. Response of Various Inhibitors on C. autoethanogenum [2, 6]: 0.44 | O.D. Response of Various Inhibitors on C. autoethanogenum [2, 7]: 1.06 | O.D. Response of Various Inhibitors on C. autoethanogenum ([2]; 30.5 Hours): 1.38 | O.D. Response of Various Inhibitors on C. autoethanogenum ([2]; 47.5 Hours): 1.90 | O.D. Response of Various Inhibitors on C. autoethanogenum ([2]; 56 Hours): 1.98 | O.D. Response to Various Inhibitors [2, 4]: 0.49 | O.D. Response to Various Inhibitors ([2]; 2.5 Hours, added 24 h after inoculation, listed as C-9): 0.40 and 0.42 | O.D. Response to Various Inhibitors ([2]; 6.5 Hours, added 24 h after inoculation, listed as C-9): 0.42 and 0.46 | O.D. Response to Various Inhibitors ([2]; 24.5 Hours, added 24 h after inoculation, listed as C-9): 1.14 and 0.97 | O.D. Response to Various Inhibitors ([2]; 30.5 Hours, added 24 h after inoculation, listed as C-9): 1.28 and 1.47 | O.D. Response to Various Inhibitors ([2]; 47.5 Hours, added 24 h after inoculation, listed as C-9): 1.67 and 2.12 | Optical density valuation of C. tyrobutyricum ([3]; 100 ppm(m)): + (bacterial growth to an OD of approximately 1.8 or above) | Optical density valuation of C. tyrobutyricum ([3]; 500 ppm(m)): + (bacterial growth to an OD of approximately 1.8 or above) | Optical density valuation of C. tyrobutyricum ([3]; 1000 ppm(m)): + (bacterial growth to an OD of approximately 1.8 or above)

CCOC(=O)C=C(C(F)(F)F)C(F)(F)F [Compound A, ethyl 4,4,4-trifluoro-3-(trifluoromethyl)crotonate]
Optical density valuation of C. autoethanogenum ([1]; 1 ppm(m)): + (bacterial growth to an OD of approximately 2 or above) | Optical density valuation of C. autoethanogenum ([1]; 5 ppm(m)): + (bacterial growth to an OD of approximately 2 or above) | Optical density valuation of C. autoethanogenum ([1]; 10 ppm(m)): + (bacterial growth to an OD of approximately 2 or above) | Optical density valuation of C. autoethanogenum ([1]; 50 ppm(m)): + (bacterial growth to an OD of approximately 2 or above) | Optical density valuation of C. autoethanogenum ([1]; 100 ppm(m)): + (bacterial growth to an OD of approximately 2 or above) | Optical density valuation of C. autoethanogenum ([1]; 500 ppm(m)): + (bacterial growth to an OD of approximately 2 or above) | Optical density valuation of C. autoethanogenum ([1]; 1000 ppm(m)): + (bacterial growth to an OD of approximately 2 or above) | Optical density valuation of C. autoethanogenum ([1]; 5000 ppm(m)): − (failure of bacterial growth to reach an optical density of approximately 0.5) | Optical density valuation of C. autoethanogenum ([1]; 10000 ppm(m)): − (failure of bacterial growth to reach an optical density of approximately 0.5) | O.D. Response of Various Inhibitors on C. autoethanogenum [2, 4]: 0.49 | O.D. Response of Various Inhibitors on C. autoethanogenum [2, 5]: 0.44 | O.D. Response of Various Inhibitors on C. autoethanogenum [2, 6]: 0.44 | O.D. Response of Various Inhibitors on C. autoethanogenum [2, 7]: 1.12 | O.D. Response of Various Inhibitors on C. autoethanogenum ([2]; 30.5 Hours): 1.18 | O.D. Response of Various Inhibitors on C. autoethanogenum ([2]; 47.5 Hours): 0.66 | O.D. Response of Various Inhibitors on C. autoethanogenum ([2]; 56 Hours): 0.58 | O.D. Response to Various Inhibitors [2, 4]: 0.49 | O.D. Response to Various Inhibitors ([2]; 2.5 Hours, added 24 h after inoculation, listed as C-1): 0.42 and 0.46 | O.D. Response to Various Inhibitors ([2]; 6.5 Hours, added 24 h after inoculation, listed as C-1): 0.42 and 0.46 | O.D. Response to Various Inhibitors ([2]; 24.5 Hours, added 24 h after inoculation, listed as C-1): 1.17 and 1.08 | O.D. Response to Various Inhibitors ([2]; 30.5 Hours, added 24 h after inoculation, listed as C-1): 1.15 and 1.22 | O.D. Response to Various Inhibitors ([2]; 47.5 Hours, added 24 h after inoculation, listed as C-1): 0.66 and 0.67 | Optical density valuation of C. tyrobutyricum ([3]; 100 ppm(m)): + (bacterial growth to an OD of approximately 1.8 or above) | Optical density valuation of C. tyrobutyricum ([3]; 500 ppm(m)): +/− (to an optical density in a range of 0.7 to 1.5) | Optical density valuation of C. tyrobutyricum ([3]; 1000 ppm(m)): − (failure of bacterial growth to reach an optical density of approximately 0.7)

O=C(O)C=C(C(F)(F)F)C(F)(F)F [D, 4,4,4-trifluoro-3-(trifluoromethyl)crotonic acid]
Optical density valuation of C. autoethanogenum ([1]; 10 ppm(m)): + (bacterial growth to an OD of approximately 2 or above) | Optical density valuation of C. autoethanogenum ([1]; 100 ppm(m)): + (bacterial growth to an OD of approximately 2 or above) | Optical density valuation of C. autoethanogenum ([1]; 500 ppm(m)): + (bacterial growth to an OD of approximately 2 or above) | Optical density valuation of C. autoethanogenum ([1]; 1000 ppm(m)): +/− (to an optical density in a range of 0.5 to 1.5) | Optical density valuation of C. autoethanogenum ([1]; 5000 ppm(m)): − (failure of bacterial growth to reach an optical density of approximately 0.5) | Optical density valuation of C. autoethanogenum ([1]; 10000 ppm(m)): − (failure of bacterial growth to reach an optical density of approximately 0.5) | Optical density valuation of C. tyrobutyricum ([3]; 100 ppm(m)): + (bacterial growth to an OD of approximately 1.8 or above) | Optical density valuation of C. tyrobutyricum ([3]; 500 ppm(m)): + (bacterial growth to an OD of approximately 1.8 or above) | Optical density valuation of C. tyrobutyricum ([3]; 1000 ppm(m)): + (bacterial growth to an OD of approximately 1.8 or above)

Reference: patent publication US20130071897A1, “METHOD FOR CONTROLLING UNDESIRABLE BYPRODUCTS FORMATION CAUSED BY CONTAMINATING ORGANISMS IN THE PRODUCTION OF ETHANOL FROM SYNGAS” (COSKATA, INC., priority 2011, published 2013)
